According to publication PMC3063099 (Xenobiotica; the fate of foreign compounds in biological …, 2010):
Where two headings read alike, the source gives them in different places.

What was measured:
CYP3A4 wild type [1] = target: T1, CYP3A4 wild type (Homo sapiens, UniProt P08684); settings: pH 7.4
CYP3A4 mutant F213W [2] = target: T2, CYP3A4 mutant F213W (Homo sapiens, UniProt P08684, F213W); settings: pH 7.4
CYP3A4 mutant F304W [3] = target: T3, CYP3A4 mutant F304W (Homo sapiens, UniProt P08684, F304W); settings: pH 7.4
T3 sequence (P08684 whole entry F304W): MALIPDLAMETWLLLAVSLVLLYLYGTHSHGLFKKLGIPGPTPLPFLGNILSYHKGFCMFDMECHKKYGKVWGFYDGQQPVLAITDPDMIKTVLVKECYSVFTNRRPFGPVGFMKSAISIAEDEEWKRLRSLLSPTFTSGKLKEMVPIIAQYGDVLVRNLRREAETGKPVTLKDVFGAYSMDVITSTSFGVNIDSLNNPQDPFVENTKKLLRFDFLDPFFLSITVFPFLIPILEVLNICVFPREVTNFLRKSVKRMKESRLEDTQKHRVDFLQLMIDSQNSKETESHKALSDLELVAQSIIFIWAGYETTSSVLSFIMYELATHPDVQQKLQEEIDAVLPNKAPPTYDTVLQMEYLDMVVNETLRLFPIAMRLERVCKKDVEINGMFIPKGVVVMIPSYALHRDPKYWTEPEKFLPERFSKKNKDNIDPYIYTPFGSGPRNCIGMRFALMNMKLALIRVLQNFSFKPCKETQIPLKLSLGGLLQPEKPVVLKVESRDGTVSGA

[4] = target: T4, CYP3A4 mutant L211F/D214E (Homo sapiens, UniProt P08684, D214E/L211F); settings: pH 7.4
T4 sequence (P08684 whole entry L211F/D214E): as the sequence (P08684 whole entry F304W) above, with L211F, D214E, W304F counted along it

CYP3A4 wild type [5] = target: T1, CYP3A4 wild type; test: Absorbance titration, substrate-induced spin shift; settings: for Kd: human, pH 7.4; for nH (Hill coefficient): Hill equation fit
CYP3A4 mutant F213W [6] = target: T2, CYP3A4 mutant F213W; test: Absorbance titration, substrate-induced spin shift; settings: for nH (Hill coefficient): Hill equation fit; for Kd: human, pH 7.4
CYP3A4 mutant F304W [7] = target: T3, CYP3A4 mutant F304W; test: Absorbance titration, substrate-induced spin shift; settings: for nH (Hill coefficient): Hill equation fit; for Kd: human, pH 7.4
[8] = target: T4, CYP3A4 mutant L211F/D214E; test: Absorbance titration, substrate-induced spin shift; settings: for nH (Hill coefficient): Hill equation fit; for Kd: human, pH 7.4
CYP3A4 wild type [9] = target: T1, CYP3A4 wild type; test: Titration-by-dilution monitored by FRET; format: binding; settings: for Efficiency of FRET: wild type
CYP3A4 mutant F213W [10] = target: T2, CYP3A4 mutant F213W; test: Titration-by-dilution monitored by FRET; format: binding; settings: for Efficiency of FRET: F213W
CYP3A4 mutant F304W [11] = target: T3, CYP3A4 mutant F304W; test: Titration-by-dilution monitored by FRET; format: binding; settings: for Efficiency of FRET: F304W
[12] = target: T4, CYP3A4 mutant L211F/D214E; test: Titration-by-dilution monitored by FRET; format: binding; settings: for Efficiency of FRET: L211F/D214E
CYP3A4 wild type [13] = target: T1, CYP3A4 wild type; test: Titration-by-dilution at excess substrate monitored by spin shift; format: binding
CYP3A4 mutant F213W [14] = target: T2, CYP3A4 mutant F213W; test: as above; format: binding
CYP3A4 mutant F304W [15] = target: T3, CYP3A4 mutant F304W; test: as above; format: binding
[16] = target: T4, CYP3A4 mutant L211F/D214E; test: as above; format: binding
[17] = human, CYP3A4 wild type enzyme in buffer, pH 7.4
[18] = equimolar enzyme-substrate mixture

T1 sequence (P08684 whole entry): as the sequence (P08684 whole entry F304W) above, with W304F counted along it
T2 sequence (P08684 whole entry F213W): as the sequence (P08684 whole entry F304W) above, with F213W, W304F counted along it

O=c1cc(-c2ccccc2)oc2c1ccc1ccccc12 [ANF, α-naphthoflavone]
Δhmax, amplitude of the substrate-induced spin shift (CYP3A4 wild type [1]): 40.0 ± 2.5% | Δhmax, amplitude of the substrate-induced spin shift (CYP3A4 mutant F213W [2]): 33.5 ± 2.1% | Δhmax, amplitude of the substrate-induced spin shift (CYP3A4 mutant F304W [3]): 36.0 ± 5.2% | Δhmax, amplitude of the substrate-induced spin shift [4]: 27.9 ± 2.2% | Kd (CYP3A4 wild type [5]; CYP3A4 wild type enzyme in buffer): 3.66 ± 0.7 µM | nH (Hill coefficient) (CYP3A4 wild type [5]; wild type, pH 7.4, 25 °C): 2.04 ± 0.30 | nH (Hill coefficient) (CYP3A4 mutant F213W [6]; F213W, pH 7.4, 25 °C): 1.52 ± 0.30 | Kd (CYP3A4 mutant F213W [6]; CYP3A4 mutant F213W enzyme in buffer): 3.5 ± 1.36 µM | nH (Hill coefficient) (CYP3A4 mutant F304W [7]; F304W, pH 7.4, 25 °C): 2.10 ± 0.20 | Kd (CYP3A4 mutant F304W [7]; CYP3A4 mutant F304W enzyme in buffer): 3.63 ± 1.46 µM | nH (Hill coefficient) ([8]; L211F/D214E, pH 7.4, 25 °C): 1.68 ± 0.16 | Kd ([8]; CYP3A4 mutant L211F/D214E enzyme in buffer): 3.67 ± 1.16 µM

OCCCCc1ccc2ccc3cccc4ccc1c2c34 [1-PB, 1-pyrenebutanol]
Kd (CYP3A4 wild type [9]): 0.25 ± 0.11 µM | Kd (CYP3A4 wild type [9]; [17]): 5 ± 1.1 µM | Efficiency of FRET (CYP3A4 wild type [9]; [18]): 95.2 ± 5.7% | Efficiency of FRET (CYP3A4 wild type [9]; excess substrate (1:4)): 108.0 ± 1.2% | Efficiency of FRET (CYP3A4 mutant F213W [10]; [18]): 80.8 ± 26.4% | Efficiency of FRET (CYP3A4 mutant F213W [10]; excess substrate (1:5)): 109.0 ± 2.0% | Kd (CYP3A4 mutant F213W [10]; KD1, F213W, equimolar enzyme-substrate mixture, FRET, 0.6 mg/ml HPCD): 0.07 ± 0.04 µM | Efficiency of FRET (CYP3A4 mutant F304W [11]; [18]): 99.6 ± 7.8% | Efficiency of FRET (CYP3A4 mutant F304W [11]; excess substrate (1:6)): 109.0 ± 1.6% | Kd (CYP3A4 mutant F304W [11]; KD1, F304W, equimolar enzyme-substrate mixture, FRET, 0.6 mg/ml HPCD): 0.26 ± 0.08 µM | Kd ([12]; KD1, L211F/D214E, equimolar enzyme-substrate mixture, FRET, 0.6 mg/ml HPCD): 0.82 ± 0.43 µM | Efficiency of FRET [12, 18]: 108.4 ± 12.9% | Efficiency of FRET ([12]; excess substrate (1:6)): 83.4 ± 16.4% | Kd (CYP3A4 wild type [13]; [17]): 10.2 ± 1.2 µM | Δhmax, maximal amplitude of the spin shift deduced from fitting (CYP3A4 wild type [13]; wild type, dilution at excess substrate (1:5)): 49.7 ± 7.3% | Δhmax, maximal amplitude of the spin shift deduced from fitting (CYP3A4 mutant F213W [14]; F213W, dilution at excess substrate (1:5)): 40.0 ± 16% | Kd (CYP3A4 mutant F213W [14]; human, CYP3A4 mutant F213W enzyme in buffer, pH 7.4): 14.4 ± 1.5 µM | Δhmax, maximal amplitude of the spin shift deduced from fitting (CYP3A4 mutant F304W [15]; F304W, dilution at excess substrate (1:5)): 23.2 ± 14.0% | Kd (CYP3A4 mutant F304W [15]; human, CYP3A4 mutant F304W enzyme in buffer, pH 7.4): 11.4 ± 1.1 µM | Δhmax, maximal amplitude of the spin shift deduced from fitting ([16]; L211F/D214E, dilution at excess substrate (1:5)): 18.2 ± 7.1% | Kd ([16]; human, CYP3A4 mutant L211F/D214E enzyme in buffer, pH 7.4): 7.3 ± 2.9 µM | Kd (CYP3A4 wild type [5]; 0.1 m na-hepes): 11.7 ± 2.4 µM | Kd (CYP3A4 wild type [5]): 12.6 µM | nH (Hill coefficient) (CYP3A4 wild type [5]; wild type, pH 7.4, 25 °C): 1.67 ± 0.18 | nH (Hill coefficient) (CYP3A4 wild type [5]; wild type, pH 7.4, 25 °C, listed as 1-pyrenebutanol): around 1.7 | Δhmax, amplitude of the substrate-induced spin shift (CYP3A4 wild type [5]; wild type, absorbance titration, pH 7.4, 25 °C): 46.7 ± 4.9% | FES, fraction of total spin shift caused by the binary complex ES (CYP3A4 wild type [5]; wild type, fit to improved sequential model): 0 | nH (Hill coefficient) (CYP3A4 mutant F213W [6]; F213W, pH 7.4, 25 °C): 1.07 ± 0.16 | nH (Hill coefficient) (CYP3A4 mutant F213W [6]; F213W, pH 7.4, 25 °C, listed as 1-pyrenebutanol): ≤ 1.1 | Δhmax, amplitude of the substrate-induced spin shift (CYP3A4 mutant F213W [6]; F213W, absorbance titration, pH 7.4, 25 °C): 57.0 ± 5.9% | FES, fraction of total spin shift caused by the binary complex ES (CYP3A4 mutant F213W [6]; F213W, fit to improved sequential model, KD1 fixed): 7.9 ±1.0% | Kd (CYP3A4 mutant F213W [6]; 0.1 m na-hepes): 12.6 ± 4.6 µM | nH (Hill coefficient) (CYP3A4 mutant F304W [7]; F304W, pH 7.4, 25 °C): 1.07 ± 0.12 | nH (Hill coefficient) (CYP3A4 mutant F304W [7]; F304W, pH 7.4, 25 °C, listed as 1-pyrenebutanol): ≤ 1.1 | Δhmax, amplitude of the substrate-induced spin shift (CYP3A4 mutant F304W [7]; F304W, absorbance titration, pH 7.4, 25 °C): 57.7 ± 5.6% | FES, fraction of total spin shift caused by the binary complex ES (CYP3A4 mutant F304W [7]; F304W, fit to improved sequential model, KD1 fixed): 15.1 ± 0.8% | Kd (CYP3A4 mutant F304W [7]; 0.1 m na-hepes): 10.7 ± 2 µM | nH (Hill coefficient) ([8]; L211F/D214E, pH 7.4, 25 °C): 1.07 ± 0.17 | nH (Hill coefficient) ([8]; L211F/D214E, pH 7.4, 25 °C, listed as 1-pyrenebutanol): ≤ 1.1 | Δhmax, amplitude of the substrate-induced spin shift ([8]; L211F/D214E, absorbance titration, pH 7.4, 25 °C): 39.4 ± 5.1% | FES, fraction of total spin shift caused by the binary complex ES ([8]; L211F/D214E, fit to improved sequential model, KD1 fixed): 21.0 ± 5.7% | Kd ([8]; 0.1 m na-hepes): 12.1 ± 1.8 µM
